Results: PubChem BioAssay (NCI)
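1) Cells in 96-well plates. 2) Compound, 48 h, 5 concentrations. 3) Linear interpolation between surrounding doses. 4) Unreached endpoint = highest concentration. TGI: concentration producing complete growth inhibition.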

What was measured:
Assay in all cases: DTP human tumour cell line panel, 48 h
[1] = system: 786-0 renal
[2] = system: A498 renal
[3] = system: A549 NSCLC
[4] = system: ACHN renal
[5] = system: BT-549 breast
[6] = system: CCRF-CEM leukemia
[7] = system: COLO 205 colon
[8] = system: DU-145 prostate
[9] = system: EKVX NSCLC
[10] = system: HCC-2998 colon
[11] = system: HCT-116 colon
[12] = system: HCT-15 colon
[13] = system: HL-60(TB) leukemia
[14] = system: HOP-62 NSCLC
[15] = system: HOP-92 NSCLC
[16] = system: HS 578T breast
[17] = system: HT29 colon
[18] = system: K-562 leukemia
[19] = system: KM12 colon
[20] = system: LOX IMVI melanoma
[21] = system: M14 melanoma
[22] = system: MALME-3M melanoma
[23] = system: MCF7 breast
[24] = system: MDA-MB-231 breast
[25] = system: MDA-MB-435
[26] = system: MDA-N
[27] = system: MOLT-4 leukemia
[28] = system: NCI-H226 lung
[29] = system: NCI-H23 lung
[30] = system: NCI-H460 lung
[31] = system: NCI-H522 lung
[32] = system: NCI/ADR-RES ovarian
[33] = system: OVCAR-3 ovarian
[34] = system: OVCAR-4 ovarian
[35] = system: OVCAR-5 ovarian
[36] = system: OVCAR-8 ovarian
[37] = system: PC-3 prostate
[38] = system: RPMI-8226 leukemia
[39] = system: SF-268 CNS
[40] = system: SF-295 CNS
[41] = system: SF-539 CNS
[42] = system: SK-MEL-2 melanoma
[43] = system: SK-MEL-28 melanoma
[44] = system: SN12C renal
[45] = system: SNB-19 CNS
[46] = system: SNB-75 CNS
[47] = system: SR leukemia
[48] = system: SW-620 colon
[49] = system: T-47D breast
[50] = system: TK-10 renal
[51] = system: U251 CNS
[52] = system: UACC-257 melanoma
[53] = system: UO-31 renal

Measured: TGI

CCOC(=O)N1CCN(c2c(N)nc(C)[nH]c2=O)CC1
> 100 µM: [1] | [2] | [3] | [4] | [5] | [6] | [7] | [8] | [9] | [10] | [11] | [12] | [13] | [14] | [15] | [16] | [17] | [18] | [19] | [20] | [21] | [22] | [23] | [24] | [25] | [26] | [27] | [28] | [29] | [30] | [31] | [32] | [33] | [34] | [35] | [36] | [37] | [38] | [39] | [40] | [41] | [42] | [43] | [44] | [45] | [46] | [47] | [48] | [49] | [50] | [51] | [52] | [53]
